Experimental findings from patent US20180194762A1 (Pharmacyclics LLC, priority 2017, published 2018) are described below.

Where two headings read alike, the source gives them in different places.

Common to all, as to assay type: biochemical
One test concerns the target T1, TEC (Homo sapiens, UniProt P42680).
T1 sequence (P42680 1-631): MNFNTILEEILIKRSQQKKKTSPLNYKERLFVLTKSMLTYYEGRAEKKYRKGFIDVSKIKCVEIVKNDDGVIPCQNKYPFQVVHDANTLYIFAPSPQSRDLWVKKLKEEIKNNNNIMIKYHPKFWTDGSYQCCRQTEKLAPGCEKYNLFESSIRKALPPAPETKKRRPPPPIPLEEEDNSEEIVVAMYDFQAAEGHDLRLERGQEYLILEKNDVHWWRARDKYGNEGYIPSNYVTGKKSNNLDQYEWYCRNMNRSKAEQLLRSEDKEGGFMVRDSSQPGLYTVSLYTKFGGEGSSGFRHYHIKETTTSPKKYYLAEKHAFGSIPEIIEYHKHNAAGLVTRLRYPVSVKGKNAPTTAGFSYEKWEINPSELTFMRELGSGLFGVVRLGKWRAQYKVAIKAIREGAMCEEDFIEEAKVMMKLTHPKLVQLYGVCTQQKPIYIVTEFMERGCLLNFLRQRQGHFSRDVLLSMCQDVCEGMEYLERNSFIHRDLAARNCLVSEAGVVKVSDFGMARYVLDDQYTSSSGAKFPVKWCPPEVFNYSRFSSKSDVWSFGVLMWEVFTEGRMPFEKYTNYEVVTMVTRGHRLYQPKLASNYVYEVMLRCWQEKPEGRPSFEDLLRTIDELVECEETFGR
The test is described as follows: Inhibition of a panel of kinases (in vitro HotSpot kinase assay, 33P-ATP, 1 μM ATP). As to conditions: for IC50: HotSpot kinase assay, 1 μM ATP; for TEC/Btk: ratio of TEC IC50 to Btk IC50 (selectivity). In short, it runs like this: (§1)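 Purified kinase enzymes were incubated with an appropriate substrate and 33P-labelled ATP at 1 μM ATP. Inhibition was measured radiometrically from incorporation of the 33P label.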

Another test addresses T2, panel of kinases (Homo sapiens, UniProt P51813).
T2 sequence (P51813 1-675): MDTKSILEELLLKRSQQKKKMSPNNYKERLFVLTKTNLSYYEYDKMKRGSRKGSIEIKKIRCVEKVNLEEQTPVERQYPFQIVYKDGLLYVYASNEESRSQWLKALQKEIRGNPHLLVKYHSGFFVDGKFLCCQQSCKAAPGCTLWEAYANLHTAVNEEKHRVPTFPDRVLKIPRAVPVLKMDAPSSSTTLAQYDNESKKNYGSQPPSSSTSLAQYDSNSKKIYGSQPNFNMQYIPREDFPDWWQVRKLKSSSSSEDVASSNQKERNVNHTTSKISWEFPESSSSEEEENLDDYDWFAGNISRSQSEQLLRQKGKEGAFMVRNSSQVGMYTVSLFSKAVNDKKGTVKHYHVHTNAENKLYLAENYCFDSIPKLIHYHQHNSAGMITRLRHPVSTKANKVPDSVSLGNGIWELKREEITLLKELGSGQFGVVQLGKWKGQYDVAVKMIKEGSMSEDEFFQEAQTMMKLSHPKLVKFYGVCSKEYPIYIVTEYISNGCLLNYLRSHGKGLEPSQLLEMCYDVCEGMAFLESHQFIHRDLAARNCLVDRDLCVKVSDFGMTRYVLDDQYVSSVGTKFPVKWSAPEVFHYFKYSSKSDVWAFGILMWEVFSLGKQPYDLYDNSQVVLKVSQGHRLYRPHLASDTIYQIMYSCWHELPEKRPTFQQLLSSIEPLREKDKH
The test is described as follows: Inhibition of a panel of kinases (in vitro HotSpot kinase assay, 33P-ATP, 1 μM ATP), other kinases. As to conditions: BMX wild-type, read-out: BMX-WT IC50. In short, it runs like this:
as §1

The target in another test is T3, Btk (Homo sapiens, UniProt Q06187).
T3 construct: purified from insect cells as a full-length construct containing a N-terminal 6X-His tag; His6 (N); made in house; host or cells: insect cells (Method C)
T3 sequence (Q06187 whole entry): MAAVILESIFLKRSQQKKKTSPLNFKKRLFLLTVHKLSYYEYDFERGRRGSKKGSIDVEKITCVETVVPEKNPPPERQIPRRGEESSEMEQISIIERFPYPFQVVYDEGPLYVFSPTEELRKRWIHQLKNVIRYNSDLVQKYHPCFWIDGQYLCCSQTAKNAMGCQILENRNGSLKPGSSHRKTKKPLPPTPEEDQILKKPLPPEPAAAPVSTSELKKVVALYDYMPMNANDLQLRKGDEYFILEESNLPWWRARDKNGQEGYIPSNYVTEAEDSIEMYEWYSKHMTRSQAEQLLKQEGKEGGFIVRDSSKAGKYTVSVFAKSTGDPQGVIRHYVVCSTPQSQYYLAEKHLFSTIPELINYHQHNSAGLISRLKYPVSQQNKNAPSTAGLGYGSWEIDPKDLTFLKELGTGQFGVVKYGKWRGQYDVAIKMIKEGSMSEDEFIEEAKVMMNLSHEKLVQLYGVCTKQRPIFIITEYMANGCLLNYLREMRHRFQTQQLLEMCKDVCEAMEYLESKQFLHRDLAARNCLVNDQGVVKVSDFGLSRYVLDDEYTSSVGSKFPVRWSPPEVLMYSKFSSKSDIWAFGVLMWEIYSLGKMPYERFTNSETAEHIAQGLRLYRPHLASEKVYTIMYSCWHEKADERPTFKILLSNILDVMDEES
Put plainly: Btk in vitro inhibitory activity (one of Method A TR-FRET, Method B electrophoretic mobility shift, Method C radiometric filter binding). In short, it runs like this:
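Method A: TR-FRET with 0.5 nM Btk at [ATP]=Km, EDTA-quenched, 665/615 nm ratio; Ki(app) converted to IC50. Method B: 1 nM full-length His6 human BTK, 1 μM FAM peptide, pH 7.5, mobility-shift product/sum ratio, 12-point 4-parameter fit. Method C: radiometric filter binding, 8 nM His-tagged BTK, 0.2 mg/mL poly-Glu-Tyr.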
In general terms: A gel shift assay detects complexes by their altered migration in electrophoresis.

[1] abbreviates: wild-type Btk, read-out: Btk-WT IC50.

In the case of `CCc1cc(C(=O)NCc2ccc(-c3ccnc4[nH]nc(N[C@@H]5CCCN(C(=O)N(C)C)[C@@H]5C)c34)cc2F)no1` [Example 171, (2R,3R)-3-{[4-(4-{[(5-ethyl-1,2-oxazol-3-yl)formamido]methyl}-3-fluorophenyl)-1H-pyrazolo[3,4-b]pyridin-3-yl]amino}-N,N,2-trimethylpiperidine-1-carboxamide], the results for the IC50 at TEC, on panel of kinases and at Btk (setting [1]) were above 10000 nM, 7790 nM and 559 nM, respectively. For the same molecule, the TEC/Btk at TEC is above 100.
For `C=CC(=O)N1CC[C@@H](Nc2n[nH]c3nccc(-c4ccc(CNC(=O)c5cn6ccccc6n5)c(F)c4)c23)C1` [Example 377, N-{[2-fluoro-4-(3-{[(3R)-1-(prop-2-enoyl)pyrrolidin-3-yl]amino}-1H-pyrazolo[3,4-b]pyridin-4-yl)phenyl]methyl}imidazo [1,2-a]pyridine-2-carboxamide], the IC50 was determined as 671 nM at TEC, 133 nM at panel of kinases and 40.6 nM at Btk (setting [1]).
As to `C=CC(=O)N1CCC[C@@H](Nc2n[nH]c3nccc(-c4ccc(C5(NC(=O)c6noc(C(C)(C)C)n6)CC5)c(F)c4)c23)C1` [Example 133, 5-tert-butyl-N-{1-[2-fluoro-4-(3-{[(3R)-1-(prop-2-enoyl)piperidin-3-yl]amino}-1H-pyrazolo[3,4-b]pyridin-4-yl)phenyl]cyclopropyl}-1,2,4-oxadiazole-3-carboxamide], the IC50 was determined as 259 nM against TEC, 111 nM on panel of kinases and 0.785 nM at Btk (setting [1]). Moreover, the TEC/Btk on TEC is recorded as 330.
Consider `CC(=O)N[C@@H]1CCN(c2n[nH]c3nccc(-c4ccc(CNC(=O)c5nc6ccccc6o5)c(F)c4)c23)C1` [Example 394, N-[(4-{3-[(3R)-3-acetamidopyrrolidin-1-yl]-1H-pyrazolo[3,4-b]pyridin-4-yl}-2-fluorophenyl)methyl]-1,3-benzoxazole-2-carboxamide], for which the IC50 was 1890 nM on TEC, 661 nM on panel of kinases and 63.3 nM on Btk (setting [1]).
As to `C=CC(=O)N1CCC[C@@H](Nc2n[nH]c3nccc(-c4ccc(C5(NC(=O)c6noc(C(C)(C)C)n6)CC5)cc4)c23)C1` [Example 270, 5-tert-butyl-N-{1-[4-(3-{[(3R)-1-(prop-2-enoyl)piperidin-3-yl]amino}-1H-pyrazolo[3,4-b]pyridin-4-yl)phenyl]cyclopropyl}-1,2,4-oxadiazole-3-carboxamide], the figures for the IC50 against TEC, at panel of kinases and on Btk (setting [1]) were 613 nM, 312 nM and 0.792 nM, respectively. Moreover, the TEC/Btk on TEC is 774.
With `C[C@@H](NC(=O)c1nc(C(C)(C)C)no1)c1ccc(-c2ccnc3[nH]nc(C4CCN(C(=O)N(C)C)CC4)c23)cc1` [Example 244, 4-[4-(4-{(1R)-1-[(3-tert-butyl-1,2,4-oxadiazole-5-carbonyl)amino]ethyl}phenyl)-1H-pyrazolo[3,4-b]pyridin-3-yl]-N,N-dimethylpiperidine-1-carboxamide], the IC50 is 9550 nM at TEC, 5870 nM at panel of kinases and 1.63 nM on Btk (setting [1]). In addition, the TEC/Btk on TEC is listed as 5859.
Turning to `C=CC(=O)NC1CCN(c2n[nH]c3nccc(-c4ccc(CNC(=O)c5nc(C(C)(C)C)no5)c(F)c4)c23)CC1` [Example 179, 3-tert-butyl-N-[(2-fluoro-4-{3-[4-(prop-2-enamido)piperidin-1-yl]-1H-pyrazolo[3,4-b]pyridin-4-yl}phenyl)methyl]-1,2,4-oxadiazole-5-carboxamide], the IC50 is 220 nM at TEC; 305 nM at panel of kinases; below 10 nM at Btk (method is one of A, B or C, not stated which, read-out: IC50 values against Btk); 0.0959 nM on Btk (setting [1]). For the same molecule, the TEC/Btk on TEC is on record as 2294.
Regarding `C=CC(=O)N[C@@H]1CCN(c2n[nH]c3nccc(-c4ccc(CNC(=O)c5coc(C(C)C)n5)c(F)c4)c23)C1` [Example 359, N-{[2-fluoro-4-(3-{(3R)-3-[(prop-2-enoyl)amino]pyrrolidin-1-yl}-1H-pyrazolo[3,4-b]pyridin-4-yl)phenyl]methyl}-2-(propan-2-yl)-1,3-oxazole-4-carboxamide], the IC50 at TEC stood at 68.5 nM; on panel of kinases it was 58.8 nM; at Btk (setting [1]), 0.402 nM.

By IC50 is commonly meant the midpoint of a concentration-inhibition curve.
